Measurements: US20260103474A1, “NOVEL COMPOUNDS FOR THE DIAGNOSIS OF TDP-43 PROTEINOPATHIES” (AC IMMUNE SA, priority 2022, published 2026)

Tests used:
TDP-43 aggregates = TDP-43 aggregates (Homo sapiens, UniProt Q13148); test: Classical autoradiography in brain sections from patients with FTD; assay type: binding; settings: for Specific binding in FTLD-TDP type A compared to control / Displacement on FTLD-TDP type A and B compared to non-demented control: classical autoradiography; for Specific binding in FTLD-TDP type A compared to control: one-way ANOVA with Tukey's correction; for cARG displacement on FTLD-TDP Type A case / cARG displacement on FTLD-TDP Type B case / cARG displacement on non-demented control: total binding divided by non-specific binding, grey matter, self-block with cold compound
Chain of TDP-43 aggregates (Q13148 whole entry): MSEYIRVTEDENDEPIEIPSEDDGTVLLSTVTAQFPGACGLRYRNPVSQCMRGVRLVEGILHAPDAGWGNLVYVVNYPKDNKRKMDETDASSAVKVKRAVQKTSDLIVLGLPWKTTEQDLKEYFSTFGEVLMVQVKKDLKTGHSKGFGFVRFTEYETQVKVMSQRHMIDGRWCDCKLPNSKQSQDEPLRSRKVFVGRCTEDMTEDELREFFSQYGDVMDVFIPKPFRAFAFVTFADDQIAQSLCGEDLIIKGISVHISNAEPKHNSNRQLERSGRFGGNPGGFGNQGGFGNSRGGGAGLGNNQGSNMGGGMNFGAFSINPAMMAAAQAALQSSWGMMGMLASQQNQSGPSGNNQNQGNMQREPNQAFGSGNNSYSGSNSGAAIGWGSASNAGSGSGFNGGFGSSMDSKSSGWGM
Protocol: All tissues were collected from donors for or from whom a written informed consent for a brain autopsy and the use of the material and clinical information for research purposes had been obtained by the respective brain banks. All samples were anonymized and coded. Frozen brain tissue blocks with confirmed TDP-43 pathology upon autopsy were processed using a cryotome to generate sections of 10 μm in thickness and mounted on glass slides. Sections were kept at −80° C. until use.
Brain sections were fixed for 15 minutes at 4° C. with 4% formaldehyde on ice and washed three times for eight minutes with 1×PBS at RT. Sections were blocked in assay buffer for 30 minutes (50 mM Tris-HCl, 0.9% NaCl+0.1% BSA). Cold test compound (Compound 1, Compound 8 or Compound 17) was diluted in assay buffer to 4 μM and applied on half of the sections for 40 minutes at RT to determine non-specific binding. The remaining half of the sections were only incubated with assay buffer (total binding). Following this incubation, an equal volume of the corresponding tritiated compound (i.e. [^3H]-Compound 1, [^3H]-Compound 8 or [^3H]-Compound 17, respectively), diluted to 20 nM (for [^3H]-Compound 1 and [^3H]-Compound 8) or 10 nM ([^3H]-Compound 17) or increasing concentration from 0.1 to 200 nM (for [^3H]-Compound 1 and [^3H]-Compound 17), was added on sections and incubated for 2 hours at RT and then washed as follows: once in ice-cold 50 mM Tris-HCl pH 7.4 buffer for one minute, twice in ice-cold PBS for one minute, once in ice-cold 50 mM Tris-HCl pH 7.4 buffer for one minute and finally rinsed briefly in ice-cold distilled water.
Sections were subsequently dried under a stream of air and mounted with a copper-based adhesive strip. Bound radioactivity was quantified by exposing the slides in a real-time autoradiography system (Beaquant™ AI4R) for 2 hours, with measurement settings configured for tritium. Beavacq software (AI4R) was used to acquire the image which was subsequently quantified using Beamage image analysis software (AI4R). Specific binding (non-specific binding subtracted from total) and displacement (total binding divided by non-specific) were calculated. Bar graphs were generated using GraphPad Prism. For Kd determination on brain sections, the specific binding data were fitted with a non-linear regression analysis using a one-site specific binding model in GraphPad Prism.

Tau tangles = test: High resolution micro-autoradiography on AD brain sections; assay type: binding, human; settings: tritiated compound 20 nM
Protocol: The protocol was adapted from Marquie et al., 2015. AD sections were incubated with [^3H]-Compound 1, [^3H]-Compound 17 or [^3H]-Tau reference compound at 20 nM for one hour at room temperature (RT). Sections were then washed as follows: One time in ice-cold 50 mM Tris-HCl pH 7.4 buffer for one minute, two times in 70% ice-cold ethanol for one minute, one time in ice-cold 50 mM Tris-HCl pH 7.4 buffer for one minute and finally rinsed briefly in ice-cold distilled water. Sections were subsequently dried and then exposed to Ilford Nuclear Emulsion Type K5 (Agar Scientific, AGP9281) in a light-proof slide storage box. After five days, the sections were developed by immersing them successively in the following solutions: 1.) Ilford Phenisol Developer (1:5 dilution in H2O, Agar Scientific, AGP9106), 2.) Ilfostop solution (1:20 dilution in H2O, Agar Scientific, AGP9104), 3.) Ilford Hypam Fixer (1:5 dilution in H2O, Agar Scientific, AGP9183) and finally rinsed with H2O.
Thioflavin S staining was performed on adjacent sections. For image acquisition, sections were mounted using ProLong Gold Antifade reagent (Invitrogen P36930) and imaged on a Panoramic150 Slide Scanner (3DHistech) with a 20× objective capturing separately brightfield and fluorescent images.

Specific binding in FTLD-TDP type A compared to control (TDP-43 aggregates) | SMILES | Micro-autoradiography silver grain accumulation on Tau tangles in AD brain sections (Tau tangles) | Displacement on FTLD-TDP type A and B compared to non-demented control (TDP-43 aggregates) | cARG displacement on FTLD-TDP Type A case (TDP-43 aggregates) | cARG displacement on FTLD-TDP Type B case (TDP-43 aggregates) | cARG displacement on non-demented control (TDP-43 aggregates)
significantly higher specific binding | [3H]C([3H])(O)C1CCN(c2ccc(-c3nc4c(s3)C(=O)N(c3cccnc3)CC4)c(F)n2)CC1 [[^3H]-Compound 17, 2-(2-fluoro-6-(4-(hydroxymethyl-t2)piperidin-1-yl)pyridin-3-yl)-5-(pyridin-3-yl)-6,7-dihydrothiazolo[5,4-c]pyridin-4(5H)-one] | No accumulation of silver grains on Tau tangles | – | – | – | –
significantly higher specific binding | [3H]c1cncc(N2CCc3nc(-c4cc([3H])c(N5CC[C@@H](F)C5)nc4F)sc3C2=O)c1 [[^3H]-Compound 1, tritiated 2-[2-fluoro-6-[(3R)-3-fluoropyrrolidin-1-yl]-3-pyridyl]-5-(3-pyridyl)-6,7-dihydrothiazolo[5,4-c]pyridin-4-one] | No accumulation of silver grains on Tau tangles | – | – | – | –
– | O=C1c2sc(-c3ccc(N4CC[C@@H](F)C4)nc3F)nc2CCN1c1cccnc1 [Compound 1, 2-[2-fluoro-6-[(3R)-3-fluoropyrrolidin-1-yl]-3-pyridyl]-5-(3-pyridyl)-6,7-dihydrothiazolo[5,4-c]pyridin-4-one] | – | increased displacement | 3.3 | 3.2 | 1.9
– | O=C1c2sc(-c3ccc(N4CCC(CO)CC4)nc3F)nc2CCN1c1cccnc1 [Compound 17, 2-(2-fluoro-6-(4-(hydroxymethyl)piperidin-1-yl)pyridin-3-yl)-5-(pyridin-3-yl)-6,7-dihydrothiazolo[5,4-c]pyridin-4(5H)-one] | – | increased displacement | 2.9 | 2.6 | 1.7
